Measurements reported in patent US8158362B2, “Methods of diagnosing susceptibility to myocardial infarction and screening for an LTA4H haplotype” (deCODE Genetics ehf., priority 2005, dated 2012).
“Also recorded” adds a separate entry of the source.

Assays:
[1] = 750 mg/day dose; healthy volunteers and patients with asthma (Dahlen et al., Hamilton et al.); cited from earlier work
C-reactive protein (CRP) = assay: Serum CRP, DG-031 crossover clinical trial incl. carry-over test; format: in vivo, human
Procedure: (§1) In the short term study, changes in levels of biomarkers that are associated with risk of MI were scored as evidence of changes in the risk of MI.
(§2) Patients (191 subjects) who met the study eligebility criteria were enrolled and randomized into 3 different dose-level groups: (1) 64 patients on 250 mg/day therapy with DG-031 (250 mg q.d.), vs placebo; (2) 64 patients on 500 mg/day therapy with DG-031 (250 mg b.i.d.) vs placebo; and (3) 63 patients on 750 mg/day therapy with DG-031 (250 mg t.i.d.) vs placebo. […] All patients received 3 tablets per day. Treatment periods, 4 weeks in duration each, were separated by a 2-week washout period. The placebo tablets were identical in shape, color, form and taste to the active tablets except that they contained no active drug ingredients. Treatment with DG-031 or placebo was in addition to the subject's standard care, including all medications and treatment plan as prescribed by the subject's cardiologist prior to enrollment. Due to early termination of 19 subjects (primarily related to unavailability due to travel), 11 were replaced prior to enrollment closure. Thus, a total of 191 subjects were enrolled, with 172 completing all 8 visits or 8 patients (4.4%) short of target.
All data were analyzed according to a pre-established analysis plan and by intention-to-treat. Hypotheses were tested at a two-sided nominal significance level of 0.05. Each arm of the study, as well as pooled sets (combining dose levels), was considered for the primary analysis. Each such set is a standard AB/BA cross-over design and in the primary analysis of efficacy, the levels of biomarkers of MI risk at the end of the treatment periods (visits 4 and 7) were used as primary response variables. The difference between DG-031 and placebo treatment was the primary outcome, assessed separately for each of the biomarkers. Treatment effect was tested using a two-sample t-test on the period differences for suitably transformed response variables, under an assumption of normality of the transformed data. We report treatment effect as one half of the observed mean differences in the two-sample t-test, with a 95% CI. No pre-tests for carry-over effect were performed as a part of the primary analysis. Tests for carry-over were done and are reported separately from results of primary analysis. As was prespecified for the primary analysis, a simple Bonferroni-adjustment based on 10 biomarkers for the primary objective for the pooled set of the two highest doses, was used to report the outcome of the primary objective. All p-values reported are nominal.
To cancel out potential seasonal effects, carry-over effects were also studied with two-sample t-tests that compare measurements of the AB (drug/placebo) group with the measurements of the BA (placebo/drug) group. To estimate the effect of the drug at visit 3 for the AB group, (v3−v2), with v3 and v2 denoting, respectively, measurements at visit 3 and visit 2, was used. Similarly (v4−v2) and (v5−v2) were used to estimate effects at visits 4 and 5. For estimating the effect at visit 6, [(v6−v2)+(v3−v2)] was used. Note that v6 from the BA group includes the drug effect after two weeks which cancels the drug effect at visit 3 from the AB group. Similarly, [(v7−v2)+(v4−v2)] was used to estimate the effect at visit 7. […]
(§3) Apart from measurements in plasma, LTB4 and MPO were also measured in whole blood preparations ex vivo following ionomycin-activation of leukocytes, using ELISA and mass spectrometry. […]

Lp-PLA2 = assay: Lp-PLA2, DG-031 crossover clinical trial; format: in vivo, human
Procedure: as §1
(§4) Patients (191 subjects) who met the study eligebility criteria were enrolled and randomized into 3 different dose-level groups: (1) 64 patients on 250 mg/day therapy with DG-031 (250 mg q.d.), vs placebo; (2) 64 patients on 500 mg/day therapy with DG-031 (250 mg b.i.d.) vs placebo; and (3) 63 patients on 750 mg/day therapy with DG-031 (250 mg t.i.d.) vs placebo. […] All patients received 3 tablets per day. Treatment periods, 4 weeks in duration each, were separated by a 2-week washout period. […]
(§5) All data were analyzed according to a pre-established analysis plan and by intention-to-treat. […] The difference between DG-031 and placebo treatment was the primary outcome, assessed separately for each of the biomarkers. […]
(§6) Apart from measurements in plasma, LTB4 and MPO were also measured in whole blood preparations ex vivo following ionomycin-activation of leukocytes, using ELISA and mass spectrometry. […] On the log scale the adjustment was based on a linear model, with coefficients determined empirically at time of blind review. Several tertiary markers were also measured including: IL-6, IL-12p40, TNFα, MMP-9, sICAM, sVCAM, P-selectin, E-selectin, MCP-1 and oxidised LDL.

urinary leukotriene E4 = assay: Urine LTE4, DG-031 crossover clinical trial; format: in vivo, human; details: highest dosage of DG-031 (750 mg/day); nominal p=0.00002
Procedure: as §1, §4, §5, §6

[2] = system: IL-6, IL-12p40, TNFα, MMP-9, sVCAM, P-selectin, E-selectin, MCP-1 and oxidised LDL; assay: Other tertiary markers (IL-6, IL-12p40, TNFα, MMP-9, sVCAM, P-selectin, E-selectin, MCP-1, oxidised LDL), DG-031 crossover clinical trial; format: in vivo, human; details: DG-031 vs placebo
Procedure: as §1, §4, §5, §6

[3] = Safety and adverse events, DG-031 crossover clinical trial; format: in vivo, human
Description: All study participants lived in the Reykjavik metropolitan area or its neighboring townships. All study participants were followed by the designated cardiologists at the University Hospital of Iceland, at their outpatient or private clinics, and all subjects had participated in a study on the genetics of MI. After the subject had given informed consent, a medical and medication history was completed, including co-morbidities, concomitant medications and specific details about the subject's cardiovascular history, including current status. All study participants were fasting and had not taken their medications prior to the study visit. Cardiologists examined the patients at all 8 visits and completed the case report forms. All blood was collected and processed immediately after sampling. All blood specimens used for the biomarker studies were processed within 2 hours of blood sampling.
as §2

[4] = system: myeloperoxidase (MPO) in whole blood; assay: MPO production in ionomycin-activated whole blood ex vivo, DG-031 crossover clinical trial; set-up: species or system human
Procedure: as §1
as §2, with “Due to early termination of 19 subjects (primarily related to unavailability due to travel), 11 were replaced prior to enrollment closure. Thus, a total of 191 subjects were enrolled, with 172 completing all 8 visits or 8 patients (4.4%) short of target.” left out
as §5, §3

[5] = system: LTB4 produced by ionomycin-activated neutrophils; assay: LTB4 production in ionomycin-activated whole blood/neutrophils ex vivo, DG-031 placebo-controlled crossover clinical trial; set-up: species or system human
Procedure: as §1, §2
All data were analyzed according to a pre-established analysis plan and by intention-to-treat. Hypotheses were tested at a two-sided nominal significance level of 0.05. Each arm of the study, as well as pooled sets (combining dose levels), was considered for the primary analysis. Each such set is a standard AB/BA cross-over design and in the primary analysis of efficacy, the levels of biomarkers of MI risk at the end of the treatment periods (visits 4 and 7) were used as primary response variables. The difference between DG-031 and placebo treatment was the primary outcome, assessed separately for each of the biomarkers. […]
as §3

serum amyloid A = assay: Serum amyloid A (SAA), DG-031 crossover clinical trial incl. carry-over test; format: in vivo, human
Procedure: as §1
as §2, with “Due to early termination of 19 subjects (primarily related to unavailability due to travel), 11 were replaced prior to enrollment closure. Thus, a total of 191 subjects were enrolled, with 172 completing all 8 visits or 8 patients (4.4%) short of target.” left out
as §5, §3

[6] = differences between visit 2 and 5, 500 and 750 mg/day vs placebo

For `O=C(O)[C@@H](c1ccc(OCc2ccc3ccccc3n2)cc1)C1CCCC1` [DG-031, (R)-(+)-alpha-cyclopentyl-4-(2-quinolinylmethoxy)-Benzeneacetic acid], the “tolerability in previous phase I-III human studies” value [1] is listed as “well tolerated”, the “carry-over / persistent effect after discontinuation, CRP” value (C-reactive protein (CRP); differences between visit 2 and 5, 500 and 750 mg/day vs placebo, p=0.017) is listed as “evidence of a persistent effect; also recorded: marked carry over effects were observed; also recorded: seems to persists until visit 7” and the “further CRP reduction in subjects already on statin therapy” value (C-reactive protein (CRP); short term study, LT inhibitor added to statin therapy) is listed as 20-30%. For the same molecule, the “reduction of serum levels of CRP” value (C-reactive protein (CRP); summary of the clinical trial) was “approximately 25%”, the “reduction of CRP” value (C-reactive protein (CRP); visit 5 (after 2-week washout), two higher doses, p=0.017) was “about 25%” and the “level of CRP during treatment” value (C-reactive protein (CRP); visits 3 (2 weeks on therapy) and 4 (4 weeks on therapy), two higher doses) was “dropped at visits 3 and 4, but not significantly”. For the same molecule, the “effect on Lp-PLA2” value (Lp-PLA2; 2 lower doses (250 mg/day and 500 mg/day)) was “not significant”, the “increase in Lp-PLA2” value (Lp-PLA2; highest dose of DG-031 (750 mg/day), nominal p=0.0056) was 9% and the “increase in urine levels of LTE4” value (urinary leukotriene E4) was 27%. The “effect on other tertiary markers” value [2] was “no effects were observed”, the “dizziness, number of patients reporting” value ([3]; active drug (any dose) vs none on placebo, p=0.032) was 6 patients and the liver transaminases ([3]; active drug vs placebo) was “no difference was detected”. The serious adverse events ([3]; between treatment groups or dose arms) was “no difference in serious adverse events”, the “overall safety and tolerability” value ([3]; clinical trial, 250-750 mg/day) was “safe and well tolerated” and the “maximum reduction in MPO production (whole blood)” value ([4]; 750 mg/day DG-031 vs placebo, nominal p=0.023) was 13%. For the same molecule, the “carry-over effect from treatment phase to placebo phase, MPO” value [4, 6] was “No carry over effects were observed”, the “maximum reduction in LTB4 production by ionomycin-activated neutrophils ex vivo” value ([5]; 750 mg/day DG-031 vs placebo, 4-week treatment, MI patients carrying at-risk FLAP/LTA4 hydrolase haplotypes, nominal p=0.0026) was 26% and the “carry-over effect from treatment phase to placebo phase, LTB4” value [5, 6] was “No carry over effects were observed”. The “levels of LTB4 produced by ionomycin-activated neutrophils ex vivo (primary efficacy endpoint)” value ([5]; pooled set of 500 mg and 750 mg arms, nominal p=0.0042, significant after correction for multiple testing) was “reduces levels of LTB4”, the “carry-over / persistent effect after discontinuation, SAA” value (serum amyloid A; differences between visit 2 and 5, 500 and 750 mg/day vs placebo, p=0.051) was “evidence of a persistent effect” and the “reduction of serum levels of SAA” value (serum amyloid A; summary of the clinical trial) was “approximately 25%”.
